A short description of data set [1]: Cytotoxicity assay (resazurin). The format is cell-based. The following applies: human, MRC-5 cells, maximal tested concentration 64 μM. The method, then: MRC-5 cells were grown into polystyrene 96-well plates at an initial concentration of 1.5 × 10^5 cells/mL cells per well and incubated at 37°C and 5% CO2. In each well, 190 μL of cell suspension was added together with 10 μL of watery compound dilutions. Cell growth was compared to untreated control wells (100% cell growth) and medium-control wells (0% cell growth). After 3 days of incubation, cell viability was assessed using resazurin as described earlier. […] Tamoxifen was used as a positive control.
For orientation: Resazurin is reduced to fluorescent resorufin, in cell work by metabolically active cells.

The subject of another data set is L. monocytogenes. Further details: method as in Kuenemann et al., 2018. The following applies: previous research; ref Kuenemann et al., 2018; cited from earlier work.
The next data set relates to S. pneumoniae. Kind of data set: Galleria mellonella killing assay. In kind it is in vivo. How it is done: Larvae were purchased from a local vendor (Anaconda Reptiles, Kontich, Belgium) and stored in wood chips at 15°C before use. Four hours before use, larvae were put at 4°C. A sterile 20 μL Hamilton syringe was used to inject 10 μL aliquots of bacterial suspensions into the hindmost left proleg of Galleria mellonella. Bacteria were grown mid logarithmic phase for 6 h with or without 1, 10, 50 or 200 μM compounds, washed and resuspended in PBS before infection. The control group was injected with 10 μL PBS. A minimum of 10 larvae per group was used. Following the injections, larvae were incubated at 37°C in the dark for several days to allow progression of the pneumococcal infection. Every 24 h, larvae were scored as dead or alive. Larvae were determined dead when no signs of movement could be observed in response to external stimuli. For each strain, at least four independent repeats were carried out.

In data set [2] the test system is S. pneumoniae polysaccharide capsule / bacterial size. The experiment in a line: FITC-dextran exclusion assay (degree of encapsulation). The format is cell-based. How it is done:
The degree of encapsulation was determined by measuring the zone of exclusion of FITC-dextran (200 kDa, Sigma-Aldrich), as described previously ([Gates et al., 2004]; [Weinberger et al., 2009]; [Cools et al., 2018]). Briefly, bacteria were grown as described earlier until logarithmic phase with or without 50 μM of compound, centrifuged for 5 min at 5000 g and resuspended in PBS. To 100 μL of bacterial suspension 20 μL FITC-dextran (10 μg/mL in water) was added and 10 μL of this suspension was subsequently used to create wet mounts with cover slips. The slides were viewed on a Zeiss Observer.Z1 microscope with a 100x objective, and fluorescent images were captured with a Zeiss AxioCam MRm camera. The images were converted into grayscale and analyzed using ImageJ software. The area of FITC exclusion was determined. For each fluorescent image, a brightfield image was also recorded in order to count the number of bacteria per chain. For each strain, the mean of 150–300 cells was determined, and at least two images were collected from each of at least two independently prepared slides.

SMILES strings stand for the structures.

As a reminder, the CC50 is the concentration that lowers cell viability or growth by half. Read a low CC50 as harm at low concentration.

In turn, `NCCCOc1cccc(C(=O)NC2CCC(n3cc(F)c(=O)[nH]c3=O)C(O)C2O)c1` (centres unmarked) [BDG 33920985] returned a CC50 at 3 days in data set [1] of 43.7 µM. Further, in the data set on L. monocytogenes, the “Activity on L. monocytogenes” value is on record as “active”.

With `NCCOc1cccc(C(=O)NC2CCCC(n3ccc(=O)[nH]c3=O)C2O)c1` (centres unmarked) [BDH 33910157], the “Effect on larval survival, dose-response” value with S. pneumoniae (strain TIGR4 grown with 1 μM compound) is “inactive”; in the data set with S. pneumoniae (strain TIGR4 grown with 10 μM compound), “inactive”; in the data set with S. pneumoniae (strain TIGR4 grown with 50 μM compound), “significantly improved larval survival”; in the data set on S. pneumoniae (strain TIGR4 grown with 200 μM compound), “significantly improved larval survival”. The CC50 at 3 days in data set [1] is > 64 µM. Also, in data set [2] (strain R6, 50 μM of compound), the “Effect on bacterial size (area of FITC-dextran exclusion)” value was “no effect”. In the data set on L. monocytogenes, the “Activity on L. monocytogenes” value is given as “active”.

Consider `NCCCOc1cccc(C(=O)NC2CCCC(n3cnc4c(N)ncnc43)C2O)c1` (centres unmarked) [BDH 33910188], for which, in data set [1], the CC50 at 3 days was > 64 µM. In addition, the “Effect on bacterial size (area of FITC-dextran exclusion)” value in data set [2] (strain M23 galU mutant, 50 μM of compound) is recorded as “no effect”.

The record behind these values is publication PMC7373766, “In vitro and in vivo Evaluation of in silico Predicted Pneumococcal UDPG:PP Inhibitors” (Frontiers in Microbiology, 2020).
